Key:
Format in all cases: in vivo
[1] = test system: winter barley (Hordeum vulgare); assay: Test B postemergence plant response; settings: for Barley plant response rating: 8 g ai/ha, postemergence, 0-100 scale; for Plant response rating, Barley: Postemergence
Summary of the method: (§1)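 Visual injury ratings on a 0–100 scale, where 100 means complete control, were made 13 to 15 days after postemergence treatment of greenhouse-grown plants at the 1- to 4-leaf stage.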

[2] = test system: chickweed (Stellaria media); assay: Test B postemergence plant response; settings: for Chickweed plant response rating: 8 g ai/ha, postemergence, 0-100 scale; for Plant response rating, Chickweed: Postemergence
Summary of the method: as §1

[3] = test system: canarygrass (Phalaris minor); assay: Test B postemergence plant response; settings: for Canarygrass plant response rating: 8 g ai/ha, postemergence, 0-100 scale; for Plant response rating, Canarygrass: Postemergence
Summary of the method: as §1

[4] = test system: windgrass (Apera spica-venti); assay: Test B postemergence plant response; settings: for Windgrass plant response rating: 8 g ai/ha, postemergence, 0-100 scale; for Plant response rating, Windgrass: Postemergence
Summary of the method: as §1

[5] = test system: morningglory (Ipomoea coccinea); assay: Test A pre-/postemergence plant response
Summary of the method: (§2)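 Greenhouse pot test: loam–sand soil; pre- and postemergence sprays applied same day; post plants 2–10 cm, 1–2 leaves. Readout ~10 d, visual % injury vs untreated (0 = none, 100 = complete control).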

[6] = test system: barnyardgrass (Echinochloa crus-galli); assay: Test A pre-/postemergence plant response
Summary of the method: as §2

[7] = test system: corn (Zea mays); assay: Test A pre-/postemergence plant response
Summary of the method: as §2

[8] = test system: large crabgrass (Digitaria sanguinalis); assay: Test A pre-/postemergence plant response
Summary of the method: as §2

[9] = test system: pigweed (Amaranthus retroflexus); assay: Test A pre-/postemergence plant response
Summary of the method: as §2

[10] = test system: Italian ryegrass (Lolium multiflorum); assay: Test B pre-/postemergence plant response
Summary of the method: (§3)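 Visual scoring from 0 (no effect) to 100 (complete control) against untreated controls was done 13 to 15 days after greenhouse treatment. Chemicals were formulated in a surfactant-containing non-phytotoxic solvent and applied to soil preemergence or to 1- to 4-leaf (2-18 cm) plants postemergence.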

[11] = test system: bermudagrass (Cynodon dactylon); assay: Test B pre-/postemergence plant response; settings: for Bermudagrass plant response rating: 8 g ai/ha
Summary of the method: as §3

[12] = test system: johnsongrass (Sorghum halepense); assay: Test B pre-/postemergence plant response
Summary of the method: as §3

[13] = 16 g ai/ha, scale 0 to 100, 0 no effect, 100 complete control
[14] = 31 g ai/ha, scale 0 to 100, 0 no effect, 100 complete control
[15] = 62 g ai/ha, scale 0 to 100, 0 no effect, 100 complete control
[16] = Postemergence, 31 g ai/ha, 0 to 100 scale, 0 no effect, 100 complete control
[17] = Postemergence, 125 g ai/ha, 0 to 100 scale, 0 no effect, 100 complete control
[18] = Preemergence, 31 g ai/ha, 0 to 100 scale, 0 is no effect, 100 is complete control
[19] = Preemergence, 125 g ai/ha, 0 to 100 scale (0 no effect, 100 complete control)
[20] = 8 g ai/ha, postemergence, 0-100 scale
[21] = Postemergence, 16 g ai/ha, scale 0 to 100
[22] = Postemergence, 31 g ai/ha, scale 0 to 100
[23] = Postemergence, 62 g ai/ha, scale 0 to 100, 0 no effect, 100 complete control
[24] = Preemergence, 62 g ai/ha, scale 0 to 100
[25] = Preemergence, 8 g ai/ha, scale 0 to 100
[26] = Preemergence, 16 g ai/ha, scale 0 to 100
[27] = Preemergence, scale 0 to 100 (0 no effect, 100 complete control)
[28] = Preemergence, 16 g ai/ha, scale 0 to 100 (0 no effect, 100 complete control)
[29] = Preemergence, 31 g ai/ha, 0 to 100 scale, 0 no effect, 100 complete control
[30] = Postemergence, 500 g ai/ha, 0 to 100 scale, 0 no effect, 100 complete control
[31] = Preemergence, 500 g ai/ha, 0 to 100 scale (0 no effect, 100 complete control)
[32] = Postemergence, 31 g ai/ha, scale 0 to 100, 0 no effect, 100 complete control
[33] = Postemergence, 62 g ai/ha, scale 0 to 100

CCOC(=O)Oc1cnn(C)c(=O)c1-n1nc(-c2ccc(Cl)cc2)cc1C [Compound 53]
Barley plant response rating [1]: 0
Plant response rating, Barley [1, 13]: 0
Plant response rating, Barley [1, 14]: 0
Plant response rating, Barley [1, 15]: 0
Chickweed plant response rating [2]: 0
Plant response rating, Chickweed ([2]; 16 g ai/ha, scale 0 to 100): 0
Plant response rating, Chickweed ([2]; 31 g ai/ha, scale 0 to 100): 0
Plant response rating, Chickweed [2, 15]: 0
Canarygrass plant response rating [3]: 0
Plant response rating, Canarygrass ([3]; 16 g ai/ha, scale 0 to 100): 0
Plant response rating, Canarygrass ([3]; 31 g ai/ha, scale 0 to 100): 0
Plant response rating, Canarygrass [3, 15]: 0
Windgrass plant response rating [4]: 0
Plant response rating, Windgrass ([4]; 16 g ai/ha, scale 0 to 100): 20
Plant response rating, Windgrass ([4]; 31 g ai/ha, scale 0 to 100): 40
Plant response rating, Windgrass [4, 15]: 60
Plant response rating, Morningglory [5, 16]: 0
Plant response rating, Morningglory [5, 17]: 20
Plant response rating, Morningglory [5, 18]: 0
Plant response rating, Morningglory [5, 19]: 0
Plant response rating, Barnyardgrass [6, 16]: 90
Plant response rating, Barnyardgrass [6, 17]: 100
Plant response rating, Barnyardgrass [6, 18]: 100
Plant response rating, Barnyardgrass [6, 19]: 100
Plant response rating, Corn [7, 16]: 80
Plant response rating, Corn [7, 17]: 90
Plant response rating, Corn [7, 18]: 0
Plant response rating, Corn [7, 19]: 70
Plant response rating, Crabgrass, Large [8, 16]: 80
Plant response rating, Crabgrass, Large [8, 17]: 100
Plant response rating, Crabgrass, Large [8, 18]: 90
Plant response rating, Crabgrass, Large [8, 19]: 100
Plant response rating, Pigweed [9, 16]: 0
Plant response rating, Pigweed [9, 17]: 0
Plant response rating, Pigweed [9, 18]: 0
Plant response rating, Pigweed [9, 19]: 0
Ryegrass, Italian plant response rating [10, 20]: 85
Plant response rating, Ryegrass, Italian [10, 21]: 90
Plant response rating, Ryegrass, Italian [10, 22]: 100
Plant response rating, Ryegrass, Italian [10, 23]: 100
Plant response rating, Ryegrass, Italian ([10]; Preemergence, 31 g ai/ha, scale 0 to 100 (0 no effect, 100 complete control)): 100
Plant response rating, Ryegrass, Italian [10, 24]: 100
Ryegrass, Italian plant response rating [10, 25]: 80
Ryegrass, Italian plant response rating [10, 26]: 100
Bermudagrass plant response rating ([11]; postemergence, 0-100 scale): 70
Plant response rating, Bermudagrass [11, 21]: 100
Plant response rating, Bermudagrass [11, 22]: 100
Plant response rating, Bermudagrass [11, 23]: 100
Bermudagrass plant response rating [11, 27]: 0
Plant response rating, Bermudagrass [11, 28]: 0
Plant response rating, Bermudagrass [11, 29]: 0
Plant response rating, Bermudagrass [11, 24]: 0
Johnsongrass plant response rating [12, 20]: 35
Plant response rating, Johnsongrass [12, 21]: 70
Plant response rating, Johnsongrass [12, 22]: 98
Plant response rating, Johnsongrass [12, 23]: 100
Plant response rating, Johnsongrass [12, 29]: 75
Plant response rating, Johnsongrass [12, 24]: 100
Johnsongrass plant response rating [12, 25]: 45
Johnsongrass plant response rating [12, 26]: 65

CCc1cc(-c2ccc(Cl)cc2)nn1-c1c(O)cnn(C)c1=O [Compound 21]
Barley plant response rating [1]: 0
Plant response rating, Barley [1, 13]: 60
Plant response rating, Barley ([1]; 62 g ai/ha, scale 0 to 100): 100
Chickweed plant response rating [2]: 0
Plant response rating, Chickweed ([2]; 16 g ai/ha, scale 0 to 100): 0
Plant response rating, Chickweed [2, 14]: 0
Plant response rating, Chickweed ([2]; 62 g ai/ha, scale 0 to 100): 0
Canarygrass plant response rating [3]: 10
Plant response rating, Canarygrass ([3]; 16 g ai/ha, scale 0 to 100): 90
Plant response rating, Canarygrass ([3]; 62 g ai/ha, scale 0 to 100): 100
Windgrass plant response rating [4]: 50
Plant response rating, Windgrass ([4]; 16 g ai/ha, scale 0 to 100): 98
Plant response rating, Windgrass [4, 14]: 100
Plant response rating, Windgrass ([4]; 62 g ai/ha, scale 0 to 100): 100
Plant response rating, Morningglory [5, 17]: 0
Plant response rating, Morningglory [5, 30]: 0
Plant response rating, Morningglory [5, 19]: 0
Plant response rating, Morningglory [5, 31]: 0
Plant response rating, Barnyardgrass [6, 17]: 100
Plant response rating, Barnyardgrass [6, 30]: 100
Plant response rating, Barnyardgrass [6, 19]: 100
Plant response rating, Barnyardgrass [6, 31]: 100
Plant response rating, Corn [7, 17]: 80
Plant response rating, Corn [7, 30]: 90
Plant response rating, Corn [7, 19]: 90
Plant response rating, Corn [7, 31]: 100
Plant response rating, Crabgrass, Large [8, 17]: 90
Plant response rating, Crabgrass, Large [8, 30]: 100
Plant response rating, Crabgrass, Large [8, 19]: 100
Plant response rating, Crabgrass, Large [8, 31]: 100
Plant response rating, Pigweed [9, 17]: 0
Plant response rating, Pigweed [9, 30]: 0
Plant response rating, Pigweed [9, 19]: 0
Plant response rating, Pigweed [9, 31]: 0
Ryegrass, Italian plant response rating [10, 20]: 98
Plant response rating, Ryegrass, Italian [10, 21]: 100
Plant response rating, Ryegrass, Italian [10, 32]: 100
Plant response rating, Ryegrass, Italian [10, 33]: 100
Plant response rating, Ryegrass, Italian [10, 28]: 100
Plant response rating, Ryegrass, Italian [10, 24]: 100
Ryegrass, Italian plant response rating [10, 25]: 90
Bermudagrass plant response rating ([11]; postemergence, 0-100 scale): 40
Plant response rating, Bermudagrass [11, 21]: 60
Plant response rating, Bermudagrass [11, 32]: 80
Plant response rating, Bermudagrass [11, 33]: 100
Bermudagrass plant response rating [11, 27]: 60
Plant response rating, Bermudagrass [11, 28]: 80
Plant response rating, Bermudagrass [11, 29]: 85
Plant response rating, Bermudagrass [11, 24]: 100
Johnsongrass plant response rating [12, 20]: 60
Plant response rating, Johnsongrass [12, 21]: 90
Plant response rating, Johnsongrass [12, 32]: 90
Plant response rating, Johnsongrass [12, 33]: 100
Plant response rating, Johnsongrass [12, 28]: 85
Plant response rating, Johnsongrass [12, 29]: 90
Plant response rating, Johnsongrass [12, 24]: 100
Johnsongrass plant response rating [12, 25]: 0

— patent US20100267561A1, “HERBICIDAL PYRIDAZINONE DERIVATIVES” (priority 2007, published 2010)
